Results as given in patent US20210101874A1, “MICROBIOCIDAL OXADIAZOLE DERIVATIVES” (SYNGENTA PARTICIPATIONS AG, priority 2017, published 2021).

How the values were obtained:
[1] = tested on: Glomerella lagenarium (Colletotrichum lagenarium); experiment: Glomerella lagenarium (Colletotrichum lagenarium) liquid culture / cucumber / preventative (anthracnose); type: cell-based; details: Colletotrichum orbiculare; 20 ppm in the applied formulation; conidia in PDB nutrient broth, 24° C.; 3 to 4 days after application; compared to untreated; read-out: disease control (inhibition of growth measured photometrically)
Procedure: Mycelia fragments or conidia suspensions of a fungus prepared either freshly from liquid cultures of the fungus or from cryogenic storage, are directly mixed into nutrient broth. DMSO solutions of the test compound (max. 10 mg/ml) are diluted with 0.025% Tween20 by a factor of 50 and 10 µl of this solution is pipetted into a microtiter plate (96-well format). The nutrient broth containing the fungal spores/mycelia fragments is then added to give an end concentration of the tested compound. The test plates are incubated in the dark at 24° C. and 96% relative humidity. The inhibition of fungal growth is determined photometrically after 2 to 7 days, depending on the pathosystem, and percent antifungal activity relative to the untreated check is calculated. Conidia of the fungus from cryogenic storage are directly mixed into nutrient broth (PDB—potato dextrose broth). After placing a (DMSO) solution of test compound into a microtiter plate (96-well format), the nutrient broth containing the fungal spores is added. The test plates are incubated at 24° C. and the inhibition of growth is measured photometrically 3 to 4 days after application. The following compounds at 20 ppm in the applied formulation give at least 80% disease control in this test when compared to untreated control under the same conditions, which show extensive disease development.

[2] = tested on: Puccinia recondita f. sp. Tritici; experiment: Puccinia recondita f. sp. tritici / wheat / leaf disc curative (brown rust); type: in vivo; details: foliar, 200 ppm in the applied formulation, wheat leaf segments cv. Kanzler, applied 1 day after inoculation, compared to untreated, assessed 6 to 8 days after application, read-out: disease control
Procedure: (§1) Leaf disks or leaf segments of various plant species are cut from plants grown in a greenhouse. The cut leaf disks or segments are placed in multiwell plates (24-well format) onto water agar. The leaf disks are sprayed with a test solution before (preventative) or after (curative) inoculation. Compounds to be tested are prepared as DMSO solutions (max. 10 mg/ml) which are diluted to the appropriate concentration with 0.025% Tween20 just before spraying. The inoculated leaf disks or segments are incubated under defined conditions (temperature, relative humidity, light, etc.) according to the respective test system. A single evaluation of disease level is carried out 3 to 14 days after inoculation, depending on the pathosystem. Percent disease control relative to the untreated check leaf disks or segments is then calculated.
Wheat leaf segments cv. Kanzler are placed on agar in multiwell plates (24-well format). The leaf segments are then inoculated with a spore suspension of the fungus. Plates were stored in darkness at 19° C. and 75% relative humidity. The formulated test compound diluted in water was applied 1 day after inoculation. The leaf segments were incubated at 19° C. and 75% relative humidity under a light regime of 12 hours light/12 hours darkness in a climate cabinet and the activity of a compound was assessed as percent disease control compared to untreated when an appropriate level of disease damage appears in untreated check leaf segments (6 to 8 days after application).
The following compounds at 200 ppm in the applied formulation give at least 80% disease control in this test when compared to untreated control leaf disks under the same conditions, which show extensive disease development.

[3] = tested on: Puccinia recondita f. sp. Tritici; experiment: Puccinia recondita f. sp. tritici / wheat / leaf disc preventative (brown rust); type: in vivo; details: foliar, 200 ppm in the applied formulation, wheat leaf segments cv. Kanzler, inoculated 1 day after application, compared to untreated, assessed 7 to 9 days after application, read-out: disease control
Procedure: as §1, with “calculated. Wheat leaf segments cv. Kanzler were placed on agar in multiwell plates (24-well format) and sprayed with the formulated test compound diluted in water. The leaf disks were inoculated with a spore suspension of the fungus 1 day after application. The inoculated leaf segments were incubated at 19° C. and 75% relative humidity (rh) under a light regime of 12 hours light/12 hours darkness in a climate cabinet and the activity of a compound was assessed as percent disease control compared to untreated when an appropriate level of disease damage appears in untreated check leaf segments (7 to 9 days after application). The following compounds at 200 ppm in the applied formulation give at least 80% disease control in this test when compared to untreated control leaf disks under the same conditions, which show extensive disease development.” for “calculated.”

CCCN(Cc1ccc(-c2noc(C(F)(F)F)n2)cc1)S(=O)(=O)CC(=O)OC [Compound 1.76, methyl 2-[propyl-[[4-[5-(trifluoromethyl)-1,2,4-oxadiazol-3-yl]phenyl]methyl]sulfamoyl]acetate]
inhibition at 20 ppm [1]: ≥ 80% | pest or weed control at 200 ppm [2]: ≥ 80% | pest or weed control at 200 ppm [3]: ≥ 80%

CS(=O)(=O)NCc1ccc(-c2noc(C(F)(F)F)n2)c(F)c1 [Compound 2.26, N-[[3-fluoro-4-[5-(trifluoromethyl)-1,2,4-oxadiazol-3-yl]phenyl]methyl] methanesulfon-amide]
inhibition at 20 ppm [1]: ≥ 80% | pest or weed control at 200 ppm [2]: ≥ 80% | pest or weed control at 200 ppm [3]: ≥ 80%

CC(C)N(Cc1ccc(-c2noc(C(F)(F)F)n2)cc1)S(=O)(=O)c1ccn(C)n1 [Compound 1.82, N-isopropyl-1-methyl-N-[[4-[5-(trifluoromethyl)-1,2,4-oxadiazol-3-yl]phenyl]methyl] pyrazole-3-sulfonamide]
inhibition at 20 ppm [1]: ≥ 80% | pest or weed control at 200 ppm [2]: ≥ 80% | pest or weed control at 200 ppm [3]: ≥ 80%

C#CCNS(=O)(=O)N(Cc1ccc(-c2noc(C(F)(F)F)n2)cc1)C1CC1 [Compound 1.20, 3-[4-[[cyclopropyl(prop-2-ynylsulfamoyl)amino]methyl]phenyl]-5-(trifluoromethyl)-1,2,4-oxadiazole]
inhibition at 20 ppm [1]: ≥ 80% | pest or weed control at 200 ppm [2]: ≥ 80%

CCN(Cc1ccc(-c2noc(C(F)(F)F)n2)cc1)S(=O)(=O)CC(=O)OC [Compound 1.59, methyl 2-[ethyl-[[4-[5-(trifluoromethyl)-1,2,4-oxadiazol-3-yl]phenyl]methyl]sulfamoyl]acetate]
inhibition at 20 ppm [1]: ≥ 80% | pest or weed control at 200 ppm [2]: ≥ 80% | pest or weed control at 200 ppm [3]: ≥ 80%

CCN(Cc1ccc(-c2noc(C(F)(F)F)n2)cc1)S(=O)(=O)N(C)C [Compound 1.64, N-(dimethylsulfamoyl)-N-[[4-[5-(trifluoromethyl)-1,2,4-oxadiazol-3-yl]phenyl]methyl] ethanamine]
inhibition at 20 ppm [1]: ≥ 80% | pest or weed control at 200 ppm [2]: ≥ 80% | pest or weed control at 200 ppm [3]: ≥ 80%

CCCS(=O)(=O)NCc1ccc(-c2noc(C(F)(F)F)n2)cc1F [Compound 2.6, N-[[2-fluoro-4-[5-(trifluoromethyl)-1,2,4-oxadiazol-3-yl]phenyl]methyl] propane-1-sulfonamide]
inhibition at 20 ppm [1]: ≥ 80% | pest or weed control at 200 ppm [2]: ≥ 80% | pest or weed control at 200 ppm [3]: ≥ 80%

CCS(=O)(=O)NCc1ccc(-c2noc(C(F)(F)F)n2)c(F)c1 [Compound 2.24, N-[[3-fluoro-4-[5-(trifluoromethyl)-1,2,4-oxadiazol-3-yl]phenyl]methyl] ethanesulfon-amide]
inhibition at 20 ppm [1]: ≥ 80% | pest or weed control at 200 ppm [2]: ≥ 80% | pest or weed control at 200 ppm [3]: ≥ 80%

O=S(=O)(NCc1ccc(-c2noc(C(F)(F)F)n2)cc1F)C1CC1 [Compound 3.29, N-[[2-fluoro-4-[5-(trifluoromethyl)-1,2,4-oxadiazol-3-yl]phenyl]methyl] cyclopropanesulfon-amide]
inhibition at 20 ppm [1]: ≥ 80% | pest or weed control at 200 ppm [2]: ≥ 80% | pest or weed control at 200 ppm [3]: ≥ 80%

CCN(Cc1ccc(-c2noc(C(F)(F)F)n2)cc1)S(=O)(=O)c1ccn(C)n1 [Compound 1.29, N-ethyl-1-methyl-N-[[4-[5-(trifluoromethyl)-1,2,4-oxadiazol-3-yl]phenyl]methyl] pyrazole-3-sulfonamide]
inhibition at 20 ppm [1]: ≥ 80% | pest or weed control at 200 ppm [2]: ≥ 80% | pest or weed control at 200 ppm [3]: ≥ 80%

C=CCS(=O)(=O)N(CCC)Cc1ccc(-c2noc(C(F)(F)F)n2)cc1 [Compound 1.70, N-propyl-N-[[4-[5-(trifluoromethyl)-1,2,4-oxadiazol-3-yl]phenyl]methyl] prop-2-ene-1-sulfonamide]
inhibition at 20 ppm [1]: ≥ 80% | pest or weed control at 200 ppm [2]: ≥ 80%

C=CCS(=O)(=O)N(C)Cc1ccc(-c2noc(C(F)(F)F)n2)cc1 [Compound 1.46, N-methyl-N-[[4-[5-(trifluoromethyl)-1,2,4-oxadiazol-3-yl]phenyl]methyl] prop-2-ene-1-sulfonamide]
inhibition at 20 ppm [1]: ≥ 80% | pest or weed control at 200 ppm [2]: ≥ 80% | pest or weed control at 200 ppm [3]: ≥ 80%

CCCN(Cc1ccc(-c2noc(C(F)(F)F)n2)cc1)S(=O)(=O)N(C)C [Compound 1.81, N-(dimethylsulfamoyl)-N-[[4-[5-(trifluoromethyl)-1,2,4-oxadiazol-3-yl]phenyl]methyl] propan-1-amine]
inhibition at 20 ppm [1]: ≥ 80% | pest or weed control at 200 ppm [2]: ≥ 80%

CCN(Cc1ccc(-c2noc(C(F)(F)F)n2)c(F)c1F)S(=O)(=O)N(C)C [Compound 1.107, N-[[2,3-difluoro-4-[5-(trifluoromethyl)-1,2,4-oxadiazol-3-yl]phenyl]methyl]-N-(dimethylsulfamoyl) ethanamine]
inhibition at 20 ppm [1]: ≥ 80% | pest or weed control at 200 ppm [2]: ≥ 80% | pest or weed control at 200 ppm [3]: ≥ 80%

COC(=O)CCS(=O)(=O)NCc1ccc(-c2noc(C(F)(F)F)n2)c(F)c1 [Compound 2.16, methyl 3-[[3-fluoro-4-[5-(trifluoromethyl)-1,2,4-oxadiazol-3-yl]phenyl]methyl-sulfamoyl] propanoate]
inhibition at 20 ppm [1]: ≥ 80% | pest or weed control at 200 ppm [2]: ≥ 80% | pest or weed control at 200 ppm [3]: ≥ 80%

Cn1ccc(S(=O)(=O)NCc2ccc(-c3noc(C(F)(F)F)n3)cc2F)n1 [Compound 3.24, N-[[2-fluoro-4-[5-(trifluoromethyl)-1,2,4-oxadiazol-3-yl]phenyl]methyl]-1-methyl-pyrazole-3-sulfonamide]
inhibition at 20 ppm [1]: ≥ 80% | pest or weed control at 200 ppm [2]: ≥ 80% | pest or weed control at 200 ppm [3]: ≥ 80%

CCN(Cc1ccc(-c2noc(C(F)(F)F)n2)c(F)c1)S(=O)(=O)N(C)C [Compound 1.106, N-(dimethylsulfamoyl)-N-[[3-fluoro-4-[5-(trifluoromethyl)-1,2,4-oxadiazol-3-yl]phenyl]methyl] ethanamine]
inhibition at 20 ppm [1]: ≥ 80% | pest or weed control at 200 ppm [2]: ≥ 80% | pest or weed control at 200 ppm [3]: ≥ 80%

O=S(=O)(NCc1ccc(-c2noc(C(F)(F)F)n2)c(F)c1)N1CCCC1 [Compound 3.17, N-[[3-fluoro-4-[5-(trifluoromethyl)-1,2,4-oxadiazol-3-yl]phenyl]methyl] pyrrolidine-1-sulfonamide]
inhibition at 20 ppm [1]: ≥ 80% | pest or weed control at 200 ppm [2]: ≥ 80% | pest or weed control at 200 ppm [3]: ≥ 80%

CNS(=O)(=O)NCc1ccc(-c2noc(C(F)(F)F)n2)c(F)c1 [Compound 2.28, 1-[3-fluoro-4-[5-(trifluoromethyl)-1,2,4-oxadiazol-3-yl]phenyl]-N-(methylsulfamoyl) methanamine]
inhibition at 20 ppm [1]: ≥ 80% | pest or weed control at 200 ppm [2]: ≥ 80% | pest or weed control at 200 ppm [3]: ≥ 80%

CC(C)S(=O)(=O)NCc1ccc(-c2noc(C(F)(F)F)n2)cc1F [Compound 2.21, N-[[2-fluoro-4-[5-(trifluoromethyl)-1,2,4-oxadiazol-3-yl]phenyl]methyl] propane-2-sulfonamide]
pest or weed control at 200 ppm [2]: ≥ 80%
